Data on one substance can be found in US20070212786A1, “Monitoring heparin by microelectronic devices” (priority 2005, published 2007).

The test concerns the target T1, AT-III (Homo sapiens, UniProt P01008).
T1 construct: purchased Bayer Corp
Put plainly: AT-III field-effect sensor binding (differential surface potential dose-response). To be noted: covalently immobilized biotinylated AT-III on the active sensor, BSA-passivated control sensor, dose-response curve FIG. 4B. The source says:
In one embodiment, AT-III is used as a covalently immobilized surface receptor. In this embodiment, the present invention can monitor active heparin. FIG. 4A illustrates the surface immobilization chemistry according to this embodiment. The surface immobilization chemistry involves aldehyde-terminated silanization of the SiO2 surface, followed by the reductive amination of the aldehyde groups to the surface-exposed amino groups of avidin, blocking the unreacted sites by ethanolamine, and attachment of covalently-immobilized avidin to biotinylated AT-III. […] Upon deblocking, the resulting bAT-III remains fully active because the heparin-binding site remains intact and unhindered because the introduced biotin groups are positioned away from it. This immobilization strategy ensures full activity and the desired surface orientation of AT-III for maximizing the sensor performance. […] The selectivity of the AT-III sensor to heparin sequence was measured by examining the binding affinity to chondroitin sulfate, a negatively charged polysaccharide structurally related to heparin. […]
The surface potential of the filed sensitive region was determined by applying an AC signal (50 mV sine wave at 4 kHz) to the reference electrode and measuring the resulting current through the EIS structure with a current preamp (Keithley Model 428) and lock-in amplifier. […]

T1 sequence (P01008 33-464): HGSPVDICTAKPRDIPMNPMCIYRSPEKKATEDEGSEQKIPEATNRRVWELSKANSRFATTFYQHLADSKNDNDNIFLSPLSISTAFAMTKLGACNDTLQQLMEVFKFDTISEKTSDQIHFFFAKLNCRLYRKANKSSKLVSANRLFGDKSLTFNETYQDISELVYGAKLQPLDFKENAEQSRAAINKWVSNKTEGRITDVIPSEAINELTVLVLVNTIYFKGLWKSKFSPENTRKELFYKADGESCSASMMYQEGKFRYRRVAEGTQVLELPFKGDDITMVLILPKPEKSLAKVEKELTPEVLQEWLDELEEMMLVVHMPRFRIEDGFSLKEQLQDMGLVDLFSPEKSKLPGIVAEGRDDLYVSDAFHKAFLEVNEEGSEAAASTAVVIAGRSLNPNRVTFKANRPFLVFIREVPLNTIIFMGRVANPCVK

In the case of chondroitin sulfate, the “response of the AT-III sensor (binding affinity, selectivity versus heparin)” value was “neglible”.
